Measured values taken from patent US12252457B2, “Compositions and methods for reducing tactile dysfunction, anxiety, and social impairment” (President and Fellows of Harvard College, priority 2018, dated 2025).
pIC50, pKi: −log10 of the molar value. “Also recorded” adds a separate entry of the source. Where a name gives a salt, the structure may show the parent alone.

Legend:
[1] = tested on: genetic and environmental mouse models of ASD; test: Tactile PPI, air puff response and startle amplitude after acute midazolam or isoguvacine in ASD mouse models; format: in vivo
Description: FIGS. 19A-19N show acute administration of the peripherally-restricted GABAA receptor agonist isoguvacine improves tactile hypersensitivity in five genetic and one environmental model of ASD. […] Two-way ANOVA with post-hoc Sidak's test, *, p<0.05. FIG. 19B: Response to a light air puff stimulus alone in mice following i.p. administration of either saline or 2 mg/kg midazolam treatment. Responses are expressed as percent of startle response to a 125 dB noise. Two-way ANOVA with post-hoc Sidak's test, *, p<0.05. FIG. 19C: Magnitude of startle response to a 125 dB noise in mice following i.p. administration of either saline or 2 mg/kg midazolam treatment. Responses are expressed as percent of startle response to a 125 dB noise. Two-way ANOVA with post-hoc Sidak's test, *, p<0.05. FIG. 19D: Magnitude of startle response to a 125 dB noise in mice following i.p. administration of saline, midazolam (2 mg/kg) or a peripherally-restricted GABAA receptor agonist, isoguvacine (2 mg/kg). Responses are expressed as percent of startle response to a 125 dB noise. Two-way ANOVA with post-hoc Sidak's test, *, p<0.05. FIGS. 19E-19G: Liquid chromatography mass spectrometry (LC-MS) quantified isoguvacine concentrations in cerebrospinal fluid (CSF) (FIG. 19E), blood (FIG. 19F) or liver (FIG. 19G) samples of mice treated with: i.p. saline, i.p. isoguvacine (“Iso.”, 20 mg/kg, samples collected 1, 3 or 24 hours post-injection), intracerebral injection isoguvacine (20 mg/kg, 1 hour post-injection), i.p. diazepam (“DZ”, 20 mg/kg, 1 hour post injection) or intracerebral injection diazepam (20 mg/kg, 1 hour post injection). FIG. 19H: Normalized peak chloride flux through α1β3γ2- and α2β3γ2-containing GABAA receptors in response to isoguvacine application. […] FIGS. 19I-19K: GABAA receptor subunit RNA expression levels across peripheral somatosensory neuron subtypes, for the alpha (FIG. 19I), beta (FIG. 19J), and gamma (FIG. 19K) subunit types. […] Two-way ANOVA with post-hoc Sidak's test, *, p<0.05. FIG. 19M: Response to a light air puff stimulus alone in mice following i.p. administration of either saline or 2 mg/kg isoguvacine treatment. Responses are expressed as percent of startle response to a 125 dB noise. Two-way ANOVA with post-hoc Sidak's test, *, p<0.05. FIG. 19N: Magnitude of startle response to a 125 dB noise in mice following i.p. administration of either saline or 2 mg/kg isoguvacine treatment. Responses are expressed as percent of startle response to a 125 dB noise. Two-way ANOVA with post-hoc Sidak's test, *, p<0.05.
Results of the GABAA receptor restoration experiments raised the possibility that pharmacological treatment with a GABAA receptor agonist may improve tactile reactivity in Mecp2 mutant mice. It was therefore tested whether benzodiazepines, which are positive allosteric modulators (PAMs) of GABAA receptors, would attenuate hairy skin hypersensitivity in Mecp2 mutant mice. Advillin^Cre; Mecp2^f/y mutant mice and their control littermates were administered either vehicle alone or the benzodiazepine midazolam (2 mg/kg, i.p.) in a pseudorandomized manner, and then subjected to tactile PPI. On the following day, treatment regimens were reversed, and tactile PPI was repeated.
While traditional blood-brain barrier (BBB) penetrating benzodiazepines and non-benzodiazepine GABAA receptor PAMs are useful for treating some ASD-related symptoms in patients, including acute anxiety, significant adverse effects including sedation and addictive potential are common (Gudex, 1991). Furthermore, long-term benzodiazepine use is linked to cognitive impairment across multiple domains, including short-term verbal memory and attention (Golombok et al., 1988; Tata et al., 1994), leading to general reluctance within the medical community for prescribing benzodiazepines and other GABAA receptor PAMs to young children (Howes et al., 2018). […]

[2] = target: T1, Transporter, GABA (Rattus norvegicus, UniProt P23978); test: GABA transporter radioligand binding assay (Cat # 226400)
T1 construct: tissue Eurofins Panlabs 226400; host or cells: rat brain membranes (own knowledge of the vendor's assay and of the cited Shank et al. 1990 method)
Description: The activity of compound Compound 5 was evaluated in Radioligand Binding assays. Methods employed herein have been adapted from the scientific literature to maximize reliability and reproducibility. Reference standards were run as an integral part of each assay to ensure the validity of the results obtained. Where presented, IC50 values were determined by a non-linear, least squares regression analysis using MathIQ™ (ID Business Solutions Ltd., UK). Where inhibition constants (K) are presented, the Ki values were calculated using the equation of Cheng and Prusoff (Cheng, Y., Prusoff, W. H., Biochem. Pharmacol. 22:3099-3108, 1973) using the observed IC50 of the tested compound, the concentration of radioligand employed in the assay, and the historical values for the KD of the ligand (obtained experimentally at Eurofins Panlabs, Inc.). Where presented, the Hill coefficient (nH), defining the slope of the competitive binding curve, was calculated using MathIQ™. […] Where IC50, Ki and/or nH data are presented without Standard Error of the Mean (SEM), data are insufficient to be quantitative.
Biochemical assay results are presented as the percent inhibition of specific binding or activity. All other results are expressed in terms of the quantitation method of that assay. For primary assays, only the lowest concentration with a significant response, judged by the criteria of the assay, is shown in this summary. […] Unless otherwise requested, primary screening in duplicate with quantitative data (e.g., IC50±SEM, Ki ±SEM and nH) are shown where applicable for individual requested assays.
J Neurochem. 54:2007-2015.

For `O=C(O)C1=CCNCC1` [Isoguvacine, isoguvacine], the “hairy skin sensitivity (tactile PPI)” value ([1]; Advillin^Cre, Gabrb3^f/f mice (homozygous deletion), 2 mg/kg i.p.) was “no reduction in hairy skin sensitivity”, the “tactile hypersensitivity (tactile PPI performance and responsivity to air puff)” value ([1]; Advillin^Cre, Mecp2^f/y and Advillin^Cre, Gabrb3^f/+ mutant mice, acute 2 mg/kg i.p.) was “significantly reduced tactile hypersensitivity; also recorded: improved tactile hypersensitivity” and the hairy skin hypersensitivity ([1]; Shank3, Fmr1, and Cntnap2 mutant mice, acute 2 mg/kg i.p.) was “attenuated hairy skin hypersensitivity”. The hairy skin hypersensitivity ([1]; mice exposed to polyinosinic:polycytidylic acid at E12.5 (maternal immune activation model)) was “improvement in hairy skin hypersensitivity”.
With `NC1C=C(C(=O)O)CCC1` (centres unmarked) [Compound 5, 3-aminocyclohex-1-enecarboxylic acid hydrochloride] the “GABA transporter inhibition (in words)” value [2] was “potent GABA transporter inhibitor”, the pIC50 [2] was 4.55 and the pKi [2] was 4.56. For the same molecule, the inhibition at 30 µM [2] was 52%, the inhibition at 0.1 µM ([2]; Conc. 0.1 μM) was -10% and the inhibition at 0.3 µM ([2]; Conc. 0.3 μM) was 3%. The inhibition at 1 µM ([2]; Conc. 1 μM) was -1%, the inhibition at 3 µM ([2]; Conc. 3 μM) was 2% and the inhibition at 10 µM ([2]; Conc. 10 μM) was 19%. For the same molecule, the inhibition at 100 µM ([2]; Conc. 100 μM) was 86%, the inhibition at 300 µM ([2]; Conc. 300 μM) was 97% and the inhibition at 1000 µM ([2]; Conc. 1 mM) was 104%. For the same molecule, the “nH (Hill coefficient)” value ([2]; slope of competitive binding curve) was 1.47.
